{"source": "patent US10035818B2", "about": "“Polyethylene glycol based prodrug of adrenomedullin and use thereof” (Bayer Pharma Aktiengesellschaft, priority 2011, dated 2018)", "key": {"[1]": {"tested_on": "Göttingen minipigs", "assay": "Acute lung injury in mini pigs induced by intratracheal LPS", "assay_type": "in vivo", "source_text": "(§1) Acute lung injury is induced in anesthetized mini pigs by use of lipopolysaccharide (LPS) or oleic acid as challenges. In detail: female Göttingen minipigs of ca. 3.5 to 5.5 kg body weight (Ellegaard, Denmark) are kept anesthetized by an continuous i.v.-infusion of Ketavet®, Dormicum® and Pancuronium® after premedication with an intramuscular injection of Ketavet®/Stresnil®. After intratracheal intubation animals are artificially ventilated using a pediatric respirator (Sulla 808V; Dräger, Germany) with an oxygen air mixture at a tidal volume of 30 to 50 ml and constant frequency of 25 min^−1. Arterial PaCO2 is adjusted to about 40 mmHg by […]. […] Cellular content of BALF is determined by use of a blood cell counter (Cell DYN 3700). […]"}, "[2]": {"tested_on": "Göttingen minipigs", "assay": "Acute lung injury in mini pigs induced by oleic acid infusion", "assay_type": "in vivo", "source_text": "as §1"}, "[3]": {"molecular_target": "T1, human adrenomedullin-receptor (Homo sapiens, UniProt O60895+Q16602)", "T1 construct": "expressed in transfected cells; host or cells: CHO (Chinese hamster ovary) aequorin reporter cell line", "T1 sequence (Q16602 23-461)": "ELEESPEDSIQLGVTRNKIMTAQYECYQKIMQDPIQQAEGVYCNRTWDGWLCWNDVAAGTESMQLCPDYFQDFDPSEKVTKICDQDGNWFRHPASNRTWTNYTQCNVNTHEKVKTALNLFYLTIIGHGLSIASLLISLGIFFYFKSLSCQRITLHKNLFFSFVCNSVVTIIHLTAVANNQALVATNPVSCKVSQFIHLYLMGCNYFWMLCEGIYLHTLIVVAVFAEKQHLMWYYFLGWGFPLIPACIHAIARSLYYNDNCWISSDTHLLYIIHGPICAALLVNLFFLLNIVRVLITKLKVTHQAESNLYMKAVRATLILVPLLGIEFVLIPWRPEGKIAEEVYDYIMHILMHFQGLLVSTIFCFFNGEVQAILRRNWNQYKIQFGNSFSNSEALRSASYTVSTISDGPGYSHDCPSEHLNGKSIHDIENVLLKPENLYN", "T1 sequence (O60895 43-175)": "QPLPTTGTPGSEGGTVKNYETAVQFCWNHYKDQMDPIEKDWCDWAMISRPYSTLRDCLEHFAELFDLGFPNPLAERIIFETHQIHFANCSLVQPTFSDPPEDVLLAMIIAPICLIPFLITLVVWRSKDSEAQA", "assay": "Recombinant adrenomedullin-receptor reporter cell (CHO, aequorin luminescence)", "assay_type": "cell-based", "settings": "before incubation; read-out: EC50 T = 0 h", "method": "Activation of the receptor by ligands can be measured by aequorin luminescence. Construction of the cell line and measurement procedure has been described in detail [Wunder F., Rebmann A., Geerts A, and Kalthof B., Mol Pharmacol, 73, 1235-1243 (2008)]. In brief: Cells are seeded on opaque 384-well microtiter plates at a density of 4000 cells/well and are grown for […]. After removal of culture medium, cells are loaded for 3 h with 0.6 μg/ml coelenterazine in Ca^2+-free Tyrode solution (130 mM sodium chloride, 5 mM potassium chloride, 20 mM HEPES (4-(2-hydroxyethyl)-1-piperazineethanesulfonic acid), 1 mM magnesium chloride, and 4.8 mM sodium hydrogen carbonate, pH 7.4) supplemented with 0.2 mM 3-Isobutyl-1-methylxanthine (IBMX) in a cell culture incubator. Compounds are added for 6 min in calcium^2+-free Tyrode solution containing 0.1% bovine serum albumin. Immediately before adding calcium^2+ to a final concentration of 3 mM measurement of the aequorin luminescence is started by use of a suitable luminometer. Luminescence is measured for 60 s."}, "[4]": {"tested_on": "normotensive Wistar rats", "assay": "Blood pressure and heart rate in telemetered, normotensive Wistar rats", "assay_type": "in vivo", "source_text": "The cardiovascular effects induced by compounds according to the invention are investigated in freely moving conscious female Wistar rats (body weight>200 g) by radiotelemetric measurement of blood pressure and heart rate. Briefly, the telemetric system (DSI Data Science International, MN, USA) is composed on 3 basic elements: implantable transmitters (TA11PA-C40), receivers (RA1010) and a computer-based acquisition software (Dataquest™ A.R.T. 4.1 for Windows). Rats are instrumented with pressure implants for chronic use at least 14 days prior to the experiments. The sensor catheter is tied with 4-0 suture several times to produce a stopper 0.5 cm from the tip of the catheter. During catheter implantation rats are anesthetized with pentobabital (Nembutal, Sanofi: 50 mg/kg i.p.). After shaving the abdominal skin, a midline abdominal incision is made, and the fluid-filled sensor catheter is inserted upstream into the exposed descending aorta between the iliac bifurcation and the renal arteries. The catheter is tied several times at the stopper. The tip of the telemetric catheter is located just caudal to the renal arteries and secured by tissue adhesive. The transmitter body is affixed to the inner peritoneal wall before closure of abdomen. A two-layer closure of the abdominal incision is used, with individual suturing of the peritoneum and the muscle wall followed by closure of the outer skin. For postsurgical protection against infections and pain a single dosage of an antibiotic (Oxytetracyclin 10% R, 5.0 ml/kg s.c., beta-pharma GmbH&Co, Germany) and analgesic is injected (Rimadyl R, 5.0 ml/kg s.c., Pfizer, Germany). The hardware configuration is equipped for 24 animals. Each rat cage is positioned on top of an individual receiver platform. After activation of the implanted transmitters, an on-line data acquisition system, samples data and converts telemetric pressure signals to mm Hg. A barometric pressure reference allows for relation of absolute pressure (relative to vacuum) to ambient atmospheric pressure. […]"}}, "note": "Where no end group is shown, it is not given here. Side-chain parts run from the residue outwards. Dab = NCC[C@H](N)C(=O)O"}
{"molecule": "O-{[(3 S)-3-Amino-4-({(2R)-1-amino-3-[(2,5-dioxo-1-{3-oxo-3-[(2-{ω-methoxy-poly-oxyethylen[40 kDa]}ethyl)amino]propyl}pyrrolidin-3-yl)sulfanyl]-1-oxopropan-2-yl}amino)-4-oxobutyl]carbamoyl}-L-tyrosyl-adrenomedullin(2-52) (Y([Dab-Cys‑NH2-succinimide-PEG 40 kDa])RQSMNNFQGLRSFGCRFGTCTVQKLAHQIYQFTDKDKDNVAPRSKISPQGY; cysteine pairing not given here; also: PEG 40 kDa prodrug linker attached by carbamate to Tyr1 phenol O; UniProt P35318 95-146, looked up) [Example 1, PEG 40 kDa based prodrug of adrenomedullin]", "values": [{"measurement": "doses found to be active", "setting": "[1]; as referred to the peptide component, LPS protocol", "result": "≤ 30", "unit": "μg/kg body weight"}, {"measurement": "LPS induced changes (PAP, EVWLI, PaO2/FiO2, cellular content of BALF)", "setting": "[1]; i.v.-bolus 15 min before the LPS challenge", "result": "ameliorated or prevented"}, {"measurement": "oleic acid induced changes (PAP, EVLWI, PaO2/FiO2)", "setting": "[2]; administration 15 min before start of the OA infusion", "result": "ameliorated or prevented"}, {"measurement": "doses found to be active", "setting": "[2]; as referred to the peptide component, oleic acid protocol", "result": "≤ 30", "unit": "μg/kg body weight"}]}
{"molecule": "O-{[(3-N-Methyl-amino-4-({(2R)-1-amino-3-[(2,5-dioxo-1-{3-oxo-3-[(2-{ω-methoxy-poly-oxyethylen[40 kDa]}ethyl)amino]propyl}pyrrolidin-3-yl)sulfanyl]-1-oxopropan-2-yl}amino)-4-oxobutyl]carbamoyl}-L-tyrosyl-adrenomedullin(2-52) [Example 2]", "values": [{"measurement": "EC50", "setting": "[3]", "result": "> 1000", "unit": "nM"}]}
{"molecule": "CC[C@H](C)[C@H](NC(=O)[C@H](CCC(N)=O)NC(=O)[C@H](Cc1c[nH]cn1)NC(=O)[C@H](C)NC(=O)[C@H](CC(C)C)NC(=O)[C@H](CCCCN)NC(=O)[C@H](CCC(N)=O)NC(=O)[C@@H](NC(=O)[C@@H](NC(=O)[C@@H]1CSSC[C@H](NC(=O)CNC(=O)[C@H](Cc2ccccc2)NC(=O)[C@H](CO)NC(=O)[C@H](CCCNC(=N)N)NC(=O)[C@H](CC(C)C)NC(=O)CNC(=O)[C@H](CCC(N)=O)NC(=O)[C@H](Cc2ccccc2)NC(=O)[C@H](CC(N)=O)NC(=O)[C@H](CC(N)=O)NC(=O)[C@H](CCSC)NC(=O)[C@H](CO)NC(=O)[C@H](CCC(N)=O)NC(=O)[C@H](CCCNC(=N)N)NC(=O)[C@@H](N)Cc2ccc(O)cc2)C(=O)N[C@@H](CCCNC(=N)N)C(=O)N[C@@H](Cc2ccccc2)C(=O)NCC(=O)N[C@@H]([C@@H](C)O)C(=O)N1)[C@@H](C)O)C(C)C)C(=O)N[C@@H](Cc1ccc(O)cc1)C(=O)N[C@@H](CCC(N)=O)C(=O)N[C@@H](Cc1ccccc1)C(=O)N[C@H](C(=O)N[C@@H](CC(=O)O)C(=O)N[C@@H](CCCCN)C(=O)N[C@@H](CC(=O)O)C(=O)N[C@@H](CCCCN)C(=O)N[C@@H](CC(=O)O)C(=O)N[C@@H](CC(N)=O)C(=O)N[C@H](C(=O)N[C@@H](C)C(=O)N1CCC[C@H]1C(=O)N[C@@H](CCCNC(=N)N)C(=O)N[C@@H](CO)C(=O)N[C@@H](CCCCN)C(=O)N[C@H](C(=O)N[C@@H](CO)C(=O)N1CCC[C@H]1C(=O)N[C@@H](CCC(N)=O)C(=O)NCC(=O)N[C@@H](Cc1ccc(O)cc1)C(N)=O)[C@@H](C)CC)C(C)C)[C@@H](C)O", "note": "[ADM, adrenomedullin (human)]", "values": [{"measurement": "duration of blood pressure reduction", "setting": "[4]", "result": "≤ 4", "unit": "h"}, {"measurement": "time after which MABP had returned to base line levels", "setting": "[4]; subcutaneous, FIG. 1", "result": "about 3.5 hours"}, {"measurement": "mean reduction of MABP at peak", "setting": "[4]; subcutaneous, one hour after administration, FIG. 1", "result": "~20", "unit": "%"}]}
